Data reported in US11999704B1, “1-(2-hydroxybenzylideneamino)-5-phenylimidazolidine-2,4-dione as an antimicrobial compound” (KING FAISAL UNIVERSITY, priority 2023, dated 2024).

Tests used:
Bacillus Cereus = experiment: Agar plate disc-diffusion, antibacterial activity (inhibition zone); format: cell-based; conditions: nutrient agar, 37° C., 48 hours, DMSO zone subtracted; for inhibition zone, Bacillus Cereus, B: B = concentration of comp. = 30.000 μL; for inhibition zone, Bacillus Cereus, C: C = concentration of comp. = 50,000 μL
Method: (§1) The agar plate disc-diffusion method was applied. Sterilized filter papers (6 mm in diameter) were wetted with 10 μL of a solution of 1-(2-hydroxybenzylideneamino)-5-phenylimidazolidine-2,4-dione (4) to be tested, containing 10 mg/mL in DMSO, and the discs were allowed to air dry. The discs were then placed onto the surface of agar plates (nutrient agar for bacteria and Sabouraud's dextrose agar for fungi) seeded with the test organism. Each plate contained 15 mL of the agar medium, previously seeded with 0.2 mL of the broth culture of each organism pregrown for 18 hours. The plates were incubated at 37° C. for 48 hours, and 72 hours for fungi. The inhibition zones was measured in millimeter. Discs impregnated with DMSO were used as a control, and its inhibition zone was subtracted from the tested compound actual inhibition zone.
(§2) The results of the antimicrobial testing can be observed in Tables 1 and 2, below, with ciprofloxacin serving as a reference.

Staphylococcus aureus = experiment: as above; format: cell-based; conditions: nutrient agar, 37° C., 48 hours, DMSO zone subtracted; for inhibition zone, Staphylococcus aureus, A: A = concentration of comp. = 10,000 μL; for inhibition zone, Staphylococcus aureus, B: B = concentration of comp. = 30.000 μL; for inhibition zone, Staphylococcus aureus, C: C = concentration of comp. = 50,000 μL
Method: as §1, §2

Escherichia coli = experiment: as above; format: cell-based; conditions: nutrient agar, 37° C., 48 hours, DMSO zone subtracted; for inhibition zone, Escherichia coli, A: A = concentration of comp. = 10,000 μL; for inhibition zone, Escherichia coli, B: B = concentration of comp. = 30.000 μL; for inhibition zone, Escherichia coli, C: C = concentration of comp. = 50,000 μL
Method: as §1, §2

Pseudomonas aeruginosa = experiment: as above; format: cell-based; conditions: nutrient agar, 37° C., 48 hours, DMSO zone subtracted; for inhibition zone, Pseudomonas aeruginosa, A: A = concentration of comp. = 10,000 μL; for inhibition zone, Pseudomonas aeruginosa, B: B = concentration of comp. = 30.000 μL; for inhibition zone, Pseudomonas aeruginosa, C: C = concentration of comp. = 50,000 μL
Method: as §1, §2

Aspergillus flavus = experiment: Agar plate disc-diffusion, antifungal activity (inhibition zone); format: cell-based; conditions: Sabouraud's dextrose agar, 37° C., 72 hours, DMSO zone subtracted; for inhibition zone, Aspergillus flavus, A: A = concentration of comp. = 10,000 μL; for inhibition zone, Aspergillus flavus, B: B = concentration of comp. = 30.000 μL; for inhibition zone, Aspergillus flavus, C: C = concentration of comp. = 50,000 μL
Method: as §1, §2

[1] = tested on: Chrysosporium keratinophilum; experiment: as above; format: cell-based; conditions: Sabouraud's dextrose agar, 37° C., 72 hours, DMSO zone subtracted; for inhibition zone, Chrysosporium keratinophilum, A: A = concentration of comp. = 10,000 μL; for inhibition zone, Chrysosporium keratinophilum, B: B = concentration of comp. = 30.000 μL; for inhibition zone, Chrysosporium keratinophilum, C: C = concentration of comp. = 50,000 μL
Method: as §1, §2

| melting point | SMILES | inhibition zone, Bacillus Cereus, A (Bacillus Cereus) | inhibition zone, Bacillus Cereus, B (Bacillus Cereus) | inhibition zone, Bacillus Cereus, C (Bacillus Cereus) | inhibition zone, Staphylococcus aureus, A (Staphylococcus aureus) | inhibition zone, Staphylococcus aureus, B (Staphylococcus aureus) | inhibition zone, Staphylococcus aureus, C (Staphylococcus aureus) | inhibition zone, Escherichia coli, A (Escherichia coli) | inhibition zone, Escherichia coli, B (Escherichia coli) | inhibition zone, Escherichia coli, C (Escherichia coli) | inhibition zone, Pseudomonas aeruginosa, A (Pseudomonas aeruginosa) | inhibition zone, Pseudomonas aeruginosa, B (Pseudomonas aeruginosa) | inhibition zone, Pseudomonas aeruginosa, C (Pseudomonas aeruginosa) | inhibition zone, Aspergillus flavus, A (Aspergillus flavus) | inhibition zone, Aspergillus flavus, B (Aspergillus flavus) | inhibition zone, Aspergillus flavus, C (Aspergillus flavus) | inhibition zone, Chrysosporium keratinophilum, A [1] | inhibition zone, Chrysosporium keratinophilum, B [1] | inhibition zone, Chrysosporium keratinophilum, C [1] |
| --- | --- | --- | --- | --- | --- | --- | --- | --- | --- | --- | --- | --- | --- | --- | --- | --- | --- | --- | --- |
|  | O=C(O)c1cn(C2CC2)c2cc(N3CCNCC3)c(F)cc2c1=O [Cip., ciprofloxacin, reference compound] | 29 millimeter | 30 millimeter | 42 millimeter | 43 millimeter | 44 millimeter | 53 millimeter | 30 millimeter | 39 millimeter | 60 millimeter | 29 millimeter | 30 millimeter | 53 millimeter | 29 millimeter | 30 millimeter | 42 millimeter | 29 millimeter | 30 millimeter | 53 millimeter |
| 161 to 163 °C | O=C1NC(=O)N(/N=C/c2ccccc2O)C1c1ccccc1 (stereo not shown) [Compound 4, 1-(2-hydroxybenzylideneamino)-5-phenylimidazolidine-2,4-dione] | 23 millimeter | 27 millimeter | 35 millimeter | 15 millimeter | 19 millimeter | 27 millimeter | 27 millimeter | 36 millimeter | 49 millimeter | 20 millimeter | 26 millimeter | 37 millimeter | 24 millimeter | 28 millimeter | 38 millimeter | 27 millimeter | 29 millimeter | 48 millimeter |
